Results as given in publication PMC10453766, “Comparison of the Effects of DOTA and NOTA Chelators on ^64Cu-Cudotadipep and ^64Cu-Cunotadipep for Prostate Cancer” (Diagnostics, 2023).
Like-named read-outs stand apart in the source and are kept apart here. Values belong to the molecule of their own block, whether it stands above or below them.

Assays:
[1] = ^18F-labeled PSMA compounds; cited from earlier work
[2] = Biodistribution in normal BALB/c mice; format: in vivo, mouse; details: tail vein
Method: (§1) Approximately 0.93 MBq ^64Cu-cudotadipep or ^64Cu-cunotadipep was injected via the tail vein into normal BALB/c mice or PC3-PIP tumor-bearing nude mice (n = 5/group). Normal and tumor-bearing mice were euthanized at 2, 6, 24, and 48 h following injection. Tumor and normal tissues were excised and weighed, and their radioactivity was measured using a gamma counter (2480 WIZARD2 gamma counter, Perkin Elmer, Waltham, MA, USA). The radioactivity measured in each tissue was expressed as a percentage of the injected dose per gram of tissue (%ID/g).

PC3-PIP (PSMA+) cells = assay: Cell uptake in PC3-PIP cells; format: cell-based, human; details: PC3-PIP cells, 1 × 10^6 cells, 3.7 MBq, 2 h, 37 °C
Method: (§2) PC3-PIP or PC3-flu cells (1 × 10^6) were mixed with 3.7 MBq (100 μCi) of ^64Cu-cudotadipep or ^64Cu-cunotadipep and incubated at 37 °C and 5% CO2 for 2 h. Following incubation, the cells were washed with PBS twice and collected via centrifugation (2000 rpm, 5 min). Radioactivity was measured using 2480 WIZARD2 gamma counter (Perkin Elmer, Waltham, MA, USA). Percent (%) uptake was calculated using the ratio between the radioactivity of the cells and treated radioactivity.

PC3-PIP tumor xenograft = assay: Biodistribution in PC3-PIP tumor-bearing nude mice; format: in vivo, mouse; details: tail vein
Method: All animal experiments followed the procedures approved by the Institutional Animal Care and Use Committee of Korea Institute of Radiological & Medical Sciences (approval No. KIRAMS2021-0044). Male BALB/c mice and athymic nude (Nu/Nu) BALB/c mice (weighing 20–25 g, 8 weeks old) were purchased from Nara Biotech (Seoul, Republic of Korea). PC3-PIP cells (1 × 10^7) were dispensed in 100 μL PBS, mixed with Matrigel, and subcutaneously implanted in the right thigh of male athymic nude (Nu/Nu) BALB/c mice. When the tumor reached 0.5–0.9 cm in diameter (2–3 weeks following implantation), biodistribution studies and PET imaging were performed.
as §1

[3] = Radiation-absorbed dose calculation (OLINDA/EXM) from normal mouse biodistribution; design: species or system human
Method: The biodistribution results of normal BALB/c mice were used to evaluate the human radiation-absorbed dose. The internal absorbed doses of ^64Cu-cudotadipep and ^64Cu-cunotadipep were evaluated using the residence time and total amount of radioactivity in the target organ of the mice. The internal absorbed dose of the mice was converted to the human dose based on the Medical Internal Radiation Dose schema, using OLINDA/EXM version 1.1 software.

PC3-flu (PSMA−) cells = assay: Cell uptake in PC3-flu cells; format: cell-based, human; details: 1 × 10^6 cells, 3.7 MBq, 2 h, 37 °C
Method: as §2

SMILES: O=C(O)CC[C@H](NC(=O)N[C@@H](CCCCNC(=O)c1ccc([18F])nc1)C(=O)O)C(=O)O [^18F-DCFPyL]
effective dose [1]: 1.65 × 10^−2 mSv/MBq

SMILES: O=C([O-])CN(CCN(CC(=O)[O-])Cc1cc(CCC(=O)NCCCCCC(=O)NCCCC[C@H](NC(=O)N[C@@H](CCC(=O)O)C(=O)O)C(=O)O)ccc1O)Cc1cc(CCC(=O)O)ccc1O.[18F-].[Al+3] [^18F-PSMA-11]
effective dose [1]: 1.28 × 10^−2 mSv/MBq

SMILES: O=C(O)CC[C@H](NC(=O)N[C@@H](CCCCNC(=O)[C@H](Cc1ccc2ccccc2c1)NC(=O)c1ccc(CNC(=O)[C@H](CCC(=O)O)NC(=O)[C@H](CCC(=O)O)NC(=O)c2ccc([18F])nc2)cc1)C(=O)O)C(=O)O [^18F-PSMA-1007]
effective dose [1]: 2.20 × 10^−2 mSv/MBq

Biodistribution, Blood ([2]; 2 h): 4.27 ± 0.64 %ID/g
Biodistribution, Bone ([2]; 2 h): 1.09 ± 0.32 %ID/g
Biodistribution, Brain ([2]; 2 h): 0.26 ± 0.07 %ID/g
Biodistribution, Fat ([2]; 2 h): 1.26 ± 0.28 %ID/g
Biodistribution, Heart ([2]; 2 h): 3.02 ± 0.52 %ID/g
Biodistribution, Intestine ([2]; 2 h): 4.22 ± 0.57 %ID/g
Biodistribution, Kidney ([2]; 2 h): 45.74 ± 12.68 %ID/g
Biodistribution, Liver ([2]; 2 h): 16.12 ± 4.51 %ID/g
Biodistribution, Lung ([2]; 2 h): 5.16 ± 1.26 %ID/g
Biodistribution, Muscle ([2]; 2 h): 1.01 ± 0.15 %ID/g
Biodistribution, Spleen ([2]; 2 h): 6.80 ± 2.46 %ID/g
Biodistribution, Stomach ([2]; 2 h): 2.30 ± 0.60 %ID/g
Biodistribution, Blood ([2]; 6 h): 2.04 ± 0.71 %ID/g
Biodistribution, Bone ([2]; 6 h): 1.10 ± 0.40 %ID/g
Biodistribution, Brain ([2]; 6 h): 0.25 ± 0.10 %ID/g
Biodistribution, Fat ([2]; 6 h): 0.72 ± 0.13 %ID/g
Biodistribution, Heart ([2]; 6 h): 2.67 ± 0.53 %ID/g
Biodistribution, Intestine ([2]; 6 h): 5.85 ± 2.69 %ID/g
Biodistribution, Kidney ([2]; 6 h): 56.43 ± 5.37 %ID/g
Biodistribution, Liver ([2]; 6 h): 19.13 ± 5.32 %ID/g
Biodistribution, Lung ([2]; 6 h): 5.77 ± 1.12 %ID/g
Biodistribution, Muscle ([2]; 6 h): 0.74 ± 0.18 %ID/g
Biodistribution, Spleen ([2]; 6 h): 7.09 ± 0.68 %ID/g
Biodistribution, Stomach ([2]; 6 h): 2.26 ± 1.59 %ID/g
Biodistribution, Blood ([2]; 24 h): 2.01 ± 0.92 %ID/g
Biodistribution, Bone ([2]; 24 h): 0.94 ± 0.41 %ID/g
Biodistribution, Brain ([2]; 24 h): 0.37 ± 0.08 %ID/g
Biodistribution, Fat ([2]; 24 h): 0.70 ± 0.33 %ID/g
Biodistribution, Heart ([2]; 24 h): 2.91 ± 0.66 %ID/g
Biodistribution, Intestine ([2]; 24 h): 3.64 ± 0.83 %ID/g
Biodistribution, Kidney ([2]; 24 h): 41.77 ± 12.09 %ID/g
Biodistribution, Liver ([2]; 24 h): 16.15 ± 3.65 %ID/g
Biodistribution, Lung ([2]; 24 h): 5.56 ± 1.13 %ID/g
Biodistribution, Muscle ([2]; 24 h): 0.68 ± 0.18 %ID/g
Biodistribution, Spleen ([2]; 24 h): 4.14 ± 0.89 %ID/g
Biodistribution, Stomach ([2]; 24 h): 1.38 ± 0.15 %ID/g
Biodistribution, Blood ([2]; 48 h): 1.22 ± 0.36 %ID/g
Biodistribution, Bone ([2]; 48 h): 0.96 ± 0.25 %ID/g
Biodistribution, Brain ([2]; 48 h): 0.44 ± 0.13 %ID/g
Biodistribution, Fat ([2]; 48 h): 0.51 ± 0.27 %ID/g
Biodistribution, Heart ([2]; 48 h): 2.72 ± 0.39 %ID/g
Biodistribution, Intestine ([2]; 48 h): 2.53 ± 0.54 %ID/g
Biodistribution, Kidney ([2]; 48 h): 24.37 ± 1.88 %ID/g
Biodistribution, Liver ([2]; 48 h): 13.48 ± 1.56 %ID/g
Biodistribution, Lung ([2]; 48 h): 4.66 ± 0.50 %ID/g
Biodistribution, Muscle ([2]; 48 h): 0.62 ± 0.12 %ID/g
Biodistribution, Spleen ([2]; 48 h): 2.73 ± 0.28 %ID/g
Biodistribution, Stomach ([2]; 48 h): 1.45 ± 0.65 %ID/g
Biodistribution, Blood (PC3-PIP tumor xenograft; 2 h): 2.79 ± 1.90 %ID/g
Biodistribution, Bone (PC3-PIP tumor xenograft; 2 h): 1.34 ± 0.23 %ID/g
Biodistribution, Fat (PC3-PIP tumor xenograft; 2 h): 2.22 ± 1.07 %ID/g
Biodistribution, Heart (PC3-PIP tumor xenograft; 2 h): 2.68 ± 0.45 %ID/g
Biodistribution, Intestine (PC3-PIP tumor xenograft; 2 h): 5.19 ± 0.68 %ID/g
Biodistribution, Kidney (PC3-PIP tumor xenograft; 2 h): 23.11 ± 4.11 %ID/g
Biodistribution, Liver (PC3-PIP tumor xenograft; 2 h): 28.09 ± 3.73 %ID/g
Biodistribution, Lung (PC3-PIP tumor xenograft; 2 h): 8.02 ± 1.49 %ID/g
Biodistribution, Muscle (PC3-PIP tumor xenograft; 2 h): 0.78 ± 0.13 %ID/g
Biodistribution, Spleen (PC3-PIP tumor xenograft; 2 h): 11.94 ± 3.50 %ID/g
Biodistribution, Stomach (PC3-PIP tumor xenograft; 2 h): 2.35 ± 0.63 %ID/g
Biodistribution, Tumor (PC3-PIP tumor xenograft; 2 h): 7.95 ± 1.58 %ID/g
Biodistribution, Blood (PC3-PIP tumor xenograft; 6 h): 1.92 ± 0.53 %ID/g
Biodistribution, Bone (PC3-PIP tumor xenograft; 6 h): 1.25 ± 0.20 %ID/g
Biodistribution, Fat (PC3-PIP tumor xenograft; 6 h): 1.12 ± 0.79 %ID/g
Biodistribution, Heart (PC3-PIP tumor xenograft; 6 h): 2.30 ± 0.30 %ID/g
Biodistribution, Intestine (PC3-PIP tumor xenograft; 6 h): 4.55 ± 0.77 %ID/g
Biodistribution, Kidney (PC3-PIP tumor xenograft; 6 h): 21.51 ± 3.13 %ID/g
Biodistribution, Liver (PC3-PIP tumor xenograft; 6 h): 22.44 ± 2.56 %ID/g
Biodistribution, Lung (PC3-PIP tumor xenograft; 6 h): 7.35 ± 3.45 %ID/g
Biodistribution, Muscle (PC3-PIP tumor xenograft; 6 h): 0.40 ± 0.13 %ID/g
Biodistribution, Spleen (PC3-PIP tumor xenograft; 6 h): 11.43 ± 5.81 %ID/g
Biodistribution, Stomach (PC3-PIP tumor xenograft; 6 h): 2.18 ± 0.47 %ID/g
Biodistribution, Tumor (PC3-PIP tumor xenograft; 6 h): 6.03 ± 3.20 %ID/g
Biodistribution, Blood (PC3-PIP tumor xenograft; 24 h): 1.75 ± 0.41 %ID/g
Biodistribution, Bone (PC3-PIP tumor xenograft; 24 h): 1.88 ± 0.35 %ID/g
Biodistribution, Fat (PC3-PIP tumor xenograft; 24 h): 1.23 ± 0.52 %ID/g
Biodistribution, Heart (PC3-PIP tumor xenograft; 24 h): 2.56 ± 0.49 %ID/g
Biodistribution, Intestine (PC3-PIP tumor xenograft; 24 h): 4.17 ± 1.45 %ID/g
Biodistribution, Kidney (PC3-PIP tumor xenograft; 24 h): 21.57 ± 6.53 %ID/g
Biodistribution, Liver (PC3-PIP tumor xenograft; 24 h): 20.08 ± 4.40 %ID/g
Biodistribution, Lung (PC3-PIP tumor xenograft; 24 h): 6.00 ± 0.85 %ID/g
Biodistribution, Muscle (PC3-PIP tumor xenograft; 24 h): 0.69 ± 0.33 %ID/g
Biodistribution, Spleen (PC3-PIP tumor xenograft; 24 h): 10.43 ± 1.98 %ID/g
Biodistribution, Stomach (PC3-PIP tumor xenograft; 24 h): 2.66 ± 1.28 %ID/g
Biodistribution, Tumor (PC3-PIP tumor xenograft; 24 h): 12.12 ± 1.17 %ID/g
Biodistribution, Blood (PC3-PIP tumor xenograft; 48 h): 1.28 ± 0.24 %ID/g
Biodistribution, Bone (PC3-PIP tumor xenograft; 48 h): 5.05 ± 6.09 %ID/g
Biodistribution, Fat (PC3-PIP tumor xenograft; 48 h): 0.88 ± 0.42 %ID/g
Biodistribution, Heart (PC3-PIP tumor xenograft; 48 h): 2.55 ± 0.12 %ID/g
Biodistribution, Intestine (PC3-PIP tumor xenograft; 48 h): 2.56 ± 0.62 %ID/g
Biodistribution, Kidney (PC3-PIP tumor xenograft; 48 h): 20.41 ± 3.03 %ID/g
Biodistribution, Liver (PC3-PIP tumor xenograft; 48 h): 13.34 ± 0.55 %ID/g
Biodistribution, Lung (PC3-PIP tumor xenograft; 48 h): 4.36 ± 0.62 %ID/g
Biodistribution, Muscle (PC3-PIP tumor xenograft; 48 h): 0.98 ± 0.24 %ID/g
Biodistribution, Spleen (PC3-PIP tumor xenograft; 48 h): 5.74 ± 1.34 %ID/g
Biodistribution, Stomach (PC3-PIP tumor xenograft; 48 h): 1.72 ± 0.70 %ID/g
Biodistribution, Tumor (PC3-PIP tumor xenograft; 48 h): 8.62 ± 0.44 %ID/g
effective dose ([3]; ICRP tissue-weighting factors, OLINDA/EXM, extrapolated from mouse biodistribution): 3.67 × 10^−1 mSv/MBq
estimated radiation-absorbed dose, kidneys ([3]; adult males, extrapolated from normal BALB/c mouse biodistribution): 8.10 mGy/MBq
SMILES: O=C([O-])CN1CCN(CC(=O)[O-])CCN(CC(=O)N[C@@H](CCCCNC(=O)CCCc2ccc(I)cc2)C(=O)NCCOCCOCC(=O)N(CCCC[C@H](NC(=O)N[C@@H](CCC(=O)O)C(=O)O)C(=O)O)CC(=O)O)CCN(CC(=O)[O-])CC1.[64Cu+2] [^64Cu-cudotadipep]
cellular uptake (PC3-PIP (PSMA+) cells): 2.93 ± 0.06%
cellular uptake (PC3-flu (PSMA−) cells): 0.44 ± 0.06%
